How the values were obtained:
Assay type in all cases: cell-based, human
[1] = test system: Fas receptors at the surface of Hep-G2 liver cells; assay: Fas receptors at the surface of Hep-G2 liver cells, fluorescence by flow cytometry; conditions: for Fluorescence Ratio: vs control
Protocol: Work was carried out on a culture of liver cells named Hep-G2 (marketed by ECACC (European collection of human genetic cell lines)).
The same procedure is carried out as in example 1, replacing the T lymphocytes of the Jurkat type with Hep-G2 liver cells.
The presence of Fas receptors at the surface of the cells was measured by fluorescence, as in example 1, and the results obtained are expressed as in example 1, in the form of FIGS. 9 to 12. […]
For this, the same procedure as in example 1 was carried out.

[2] = test system: TNF alpha receptors (p55 TNF receptor) on Jurkat-type cells; assay: TNF alpha receptors at the surface of Jurkat-type cells, fluorescence by flow cytometry
Protocol: In this example, the effect of dextran sulfate at a concentration of 0.1 mg/ml on the increase in the number of TNF alpha receptors on Jurkat-type cells was measured.
The medium used for culturing the Jurkat-type cells is that marketed by the company Life Technologies under the name “RPMI 1640 medium”; this medium is described by Moore et al. in the publication “A.M.A.” 199, 519 (1967).
10^6 T lymphocytes are suspended in 5 ml of this medium. The culturing was carried out in an incubator at a temperature of 37° C. and in an atmosphere containing 5% CO2. After incubation for 24 hours, the cells multiplied to reach 2×10^6 cells.
(§1) These cells are recovered by centrifugation, and are washed in an isotonic PBS buffer. A further incubation is then carried out in 1 ml of the abovementioned medium at 4° C. and in an atmosphere containing 5% CO2, for 45 minutes in the presence of an anti-human p55 TNF receptor, clone MR1-2, ref. MON9062 produced in mice by Genzyme SA, diluted to 1/50 in PBS containing 1% of bovine serum albumin (BSA).
The cells are recovered and are washed with the isotonic PBS buffer. A further incubation is carried out with an antibody against mouse immunoglobulins (IgGs) (produced in the goat) coupled to fluorescein isothiocyanate, diluted to 1/50 in PBS containing 1% of BSA. […]
The influence of the dextran sulfate is determined by introducing 0.1 mg of dextran sulfate per ml into the culture medium.
The presence of TNF alpha receptors at the surface of the cells was measured by fluorescence as in the previous examples.
In FIG. 17, in which the Y-axis represents the number (to within one multiplication factor) of TNF alpha receptors at the surface of the cells, and in which the X-axis represents the intensity of fluorescence (arbitrary units), the Gaussian distribution of the fluorescence for the control sample (curve T1) and for the sample which was incubated in the presence of 0.1 mg/ml of dextran sulfate (curve C17) is represented in the form of a curve.

[3] = test system: Fas receptors at the surface of T lymphocytes (of the Jurkat type); assay: Fas receptors at the surface of Jurkat-type T lymphocytes, fluorescence by flow cytometry
Protocol: Work was carried out on a culture of immortalized human cells consisting of T lymphocytes (of the Jurkat type).
The medium used for culturing the Jurkat-type cells is that marketed by the company Life Technologies under the name “RPMI 1640 Medium”; this medium is described by Moore et al. in the publication “A.M.A.” 199, 519 (1967).
10^6 T lymphocytes of the Jurkat type were suspended in 5 ml of this medium. The culturing was carried out in an incubator at a temperature of 37° C. and in an atmosphere containing 5% CO2.
After incubation for 24 hours, the cells multiplied to reach 2×10^6 cells.
as §1, with “incubation of these 2×10^6 cells” for “incubation”, “anti-Fas” for “anti-human p55 TNF”, “sold under the catalog number 05-201” for “clone MR1-2, ref. MON9062 produced in mice”, “Euromedex,” for “Genzyme SA,”
At the end of this incubation, the cells are collected and are washed with the isotonic PBS buffer. After washing, a further incubation of the cells is carried out for 45 minutes at 4° C. in the presence of an antibody against hamster immunoglobulins (IgGs) (produced in the goat) which is coupled to fluorescein isothiocyanate, diluted to 1/50 in PBS containing 1% of BSA (marketed by Euromedex, No. AP128F).
Controls were prepared by incubating the T lymphocytes of the Jurkat type only with the second antibody (goat anti-hamster IgG coupled to fluorescein isothio-cyanate).
The increase in the number of Fas receptors at the surface of the cells, under the action of dextran sulfate, is then determined.
Consequently, the fluorescence of the cells (which is proportional to the number of receptors present at the surface) is determined in the absence of dextran sulfate and in the presence of dextran sulfate for a number of solutions at various concentrations. The ratio of the fluorescence in the absence of dextran sulfate to the fluorescence with dextran sulfate is then calculated. In the following text, the result of this calculation is called “ratio”.
Various assays are carried out by introducing into the culture medium, at time t=0 of the experiment, dextran sulfate at the following doses: 0.2 mg/ml, 0.1 mg/ml, 0.02 mg/ml and 0.002 mg/ml; the dextran sulfate is that marketed by the company Sigma.
After various times of incubation with the dextran sulfate, the presence of Fas receptors at the surface of the cells is detected by fluorescence. This fluorescence is induced by the fluorescein isothio-cyanate coupled to the anti-Fas receptor antibodies which are attached to the Fas receptors, and was measured by passing a cell sample containing 10^4 cells through a device such as those which function by flow cytometry, in this case that marketed by the company Beckton Dickinson under the name “FACS Scan Flow Cytometer”. The intensity of the fluorescence, which is expressed in arbitrary units, therefore depends on the number of Fas receptors present at the surface of the cells making up the sample.
For each sample, the curve representing the variation in fluorescence as a function of said number of cells having receptors at their surface is constructed on a graph on which the fluorescence (arbitrary units) is recorded on the X axis and the number of cells (to within one multiplication factor) having receptors at their surface is recorded on the Y axis; this curve reflects a Gaussian-type distribution of the fluorescence.
The various assays carried out make it possible to classify the cell populations as a function of the fluorescence, i.e. as a function of the number of receptors present at the surface of the cells.
The different maximum fluorescence values for each assay, which reflect the different numbers of receptors present at the surface, depend on the active products used in the various assays. […]

[4] = Hep-G2, 0.02 mg/ml dextran sulfate (0.2 mg/ml given in source), 6 h (curve C13)
[5] = Hep-G2, 0.02 mg/ml dextran sulfate (0.2 mg/ml given in source), 24 h (curve C14)
[6] = Hep-G2, 0.02 mg/ml dextran sulfate (0.2 mg/ml given in source), 48 h (curve C15)
[7] = Hep-G2, 0.02 mg/ml dextran sulfate (0.2 mg/ml given in source), 72 h (curve C16)
[8] = Hep-G2, dextran sulfate 0.002 mg/ml (curve C12)
[9] = Hep-G2, dextran sulfate 0.02 mg/ml (curve C11)
[10] = Hep-G2, dextran sulfate 0.1 mg/ml (curve C10)
[11] = Hep-G2, dextran sulfate 0.2 mg/ml (curve C9)

Substance: dextran sulfate
- minimum concentration for increase in the number of Fas receptors at the cell surface ([1]; Hep-G2): 0.02 mg/mL
- optimum concentration for increase in the number of Fas receptors at the cell surface ([1]; Hep-G2): 0.1 mg/mL
- Fluorescence Value measured (peak of curve) [1, 4]: 40 arbitrary units
- Fluorescence Ratio [1, 4]: 1.6
- Fluorescence Value measured (peak of curve) [1, 5]: 50 arbitrary units
- Fluorescence Ratio [1, 5]: 2
- Fluorescence Value measured (peak of curve) [1, 6]: 70 arbitrary units
- Fluorescence Ratio [1, 6]: 2.8
- Fluorescence Value measured (peak of curve) [1, 7]: 50 arbitrary units
- Fluorescence Ratio [1, 7]: 2
- incubation time of the maximum of the increase in the number of Fas receptors at the cell surface ([1]; Hep-G2, dextran sulfate): 48 h
- Fluorescence Value measured (peak of curve) [1, 8]: 60 arbitrary units
- Fluorescence Ratio [1, 8]: 1
- Fluorescence Value measured (peak of curve) [1, 9]: 120 arbitrary units
- Fluorescence Ratio [1, 9]: 2
- Fluorescence Value measured (peak of curve) [1, 10]: 140 arbitrary units
- Fluorescence Ratio [1, 10]: 2.3
- Fluorescence Value measured (peak of curve) [1, 11]: 160 arbitrary units
- Fluorescence Ratio [1, 11]: 2.7
- Fluorescence Value measured (peak of curve) ([2]; TNF alpha receptors, dextran sulfate 0.1 mg/ml (curve C17)): 200 arbitrary units
- Fluorescence Ratio ([2]; TNF alpha receptors, dextran sulfate 0.1 mg/ml, vs control): 1.14
- increase in the number of TNF alpha receptors at the surface ([2]; dextran sulfate 0.1 mg/ml, called weak): 10%
- incubation time of the maximum of the increase in the number of Fas receptors at the cell surface ([3]; 0.02 mg/ml dextran sulfate): 48 h
- Fluorescence Value measured (peak of curve) ([3]; 0.02 mg/ml dextran sulfate, 6 h (curve C41)): 100 arbitrary units
- Fluorescence Ratio ([3]; 0.02 mg/ml dextran sulfate, 6 h (curve C41), vs control): 2
- Fluorescence Value measured (peak of curve) ([3]; 0.02 mg/ml dextran sulfate, 24 h (curve C42)): 120 arbitrary units
- Fluorescence Ratio ([3]; 0.02 mg/ml dextran sulfate, 24 h (curve C42), vs control): 2.4
- Fluorescence Value measured (peak of curve) ([3]; 0.02 mg/ml dextran sulfate, 48 h (curve C43)): 150 arbitrary units
- Fluorescence Ratio ([3]; 0.02 mg/ml dextran sulfate, 48 h (curve C43), vs control): 3
- Fluorescence Value measured (peak of curve) ([3]; 0.02 mg/ml dextran sulfate, 72 h (curve C44)): 80 arbitrary units
- Fluorescence Ratio ([3]; 0.02 mg/ml dextran sulfate, 72 h (curve C44), vs control): 1.6
- minimum concentration for increase in the number of Fas receptors at the cell surface ([3]; at greater dilution effect too diminished, higher concentration does not enhance): 0.02 mg/mL
- Fluorescence Value measured (peak of curve) ([3]; dextran sulfate 0.002 mg/ml (curve C5)): 90 arbitrary units
- Fluorescence Ratio ([3]; dextran sulfate 0.002 mg/ml (curve C5), vs control): 1.13
- Fluorescence Value measured (peak of curve) ([3]; dextran sulfate 0.02 mg/ml (curve C4)): 200 arbitrary units
- Fluorescence Ratio ([3]; dextran sulfate 0.02 mg/ml (curve C4), vs control): 2.50
- Fluorescence Value measured (peak of curve) ([3]; dextran sulfate 0.1 mg/ml (curve C3)): 250 arbitrary units
- Fluorescence Ratio ([3]; dextran sulfate 0.1 mg/ml (curve C3), vs control): 3.13
- Fluorescence Value measured (peak of curve) ([3]; dextran sulfate 0.2 mg/ml (curve C2)): 250 arbitrary units
- Fluorescence Ratio ([3]; dextran sulfate 0.2 mg/ml (curve C2), vs control without dextran sulfate): 3.13

Substance: iota-carrageenan [Ic]
- incubation time of the maximum of the increase in the number of Fas receptors at the cell surface ([3]; Ic 0.2 mg/ml): 24 h
- Fluorescence Value measured (peak of curve) ([3]; Ic 0.2 mg/ml, 6 h): 80 arbitrary units
- Fluorescence Ratio ([3]; Ic 0.2 mg/ml, 6 h, vs control): 1.3
- Fluorescence Value measured (peak of curve) ([3]; Ic 0.2 mg/ml, 24 h): 180 arbitrary units
- Fluorescence Ratio ([3]; Ic 0.2 mg/ml, 24 h, vs control): 2.7
- Fluorescence Value measured (peak of curve) ([3]; Ic 0.2 mg/ml, 48 h): 125 arbitrary units
- Fluorescence Ratio ([3]; Ic 0.2 mg/ml, 48 h, vs control): 2.1
- Fluorescence Value measured (peak of curve) ([3]; Ic 0.2 mg/ml, 72 h): 100 arbitrary units
- Fluorescence Ratio ([3]; Ic 0.2 mg/ml, 72 h, vs control): 1.7

— patent US20030166609A1, “Medicine containing polysacccharide substances for activating apoptosis” (priority 2000, published 2003)
